Test results: publication PMC5014630 (Molecular pharmaceutics, 2016)

Tests used:
iPSC-derived BMECs [1] = test: Directional; assay type: in vitro ADME, human; conditions: normalized to AB permeability; Student's t-test
BCRP = target: T1, BCRP (Homo sapiens, UniProt Q9UNQ0); test: Permeability with BCRP inhibitor Ko143 in iPSC-derived BMEC; assay type: in vitro ADME; conditions: 1 μM Ko143, 60 min pre-incubation; normalized to no inhibitor
T1 sequence (Q9UNQ0 1-655): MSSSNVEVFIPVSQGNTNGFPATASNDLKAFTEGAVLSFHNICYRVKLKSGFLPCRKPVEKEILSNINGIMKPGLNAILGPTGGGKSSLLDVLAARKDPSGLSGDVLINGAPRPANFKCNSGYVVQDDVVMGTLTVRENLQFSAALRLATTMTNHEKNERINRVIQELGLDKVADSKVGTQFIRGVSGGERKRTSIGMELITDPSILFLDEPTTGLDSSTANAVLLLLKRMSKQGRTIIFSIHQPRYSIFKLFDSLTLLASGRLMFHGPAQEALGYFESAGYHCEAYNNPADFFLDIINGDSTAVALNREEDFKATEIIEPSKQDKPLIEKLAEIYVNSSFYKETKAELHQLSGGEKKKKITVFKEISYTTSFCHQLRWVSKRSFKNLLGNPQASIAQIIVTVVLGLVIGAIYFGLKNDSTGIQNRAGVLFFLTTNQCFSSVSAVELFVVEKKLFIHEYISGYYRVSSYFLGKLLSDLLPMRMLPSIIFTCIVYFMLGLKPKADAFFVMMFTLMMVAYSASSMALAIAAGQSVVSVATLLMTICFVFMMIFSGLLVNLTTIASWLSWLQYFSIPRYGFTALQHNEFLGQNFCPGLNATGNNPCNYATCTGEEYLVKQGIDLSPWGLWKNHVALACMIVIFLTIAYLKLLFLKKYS

iPSC-derived BMECs [2] = test: Temperature dependence of permeability; assay type: in vitro ADME, human; conditions: normalized to 37°C condition; Student's t-test
P-gp = P-gp (Homo sapiens, UniProt P08183); test: Permeability with P-gp inhibitor PSC833 in iPSC-derived BMEC; assay type: in vitro ADME; conditions: 1 μM PSC833, 60 min pre-incubation; normalized to no inhibitor
[3] = Permeability across iPSC-derived BMEC Transwell in vitro BBB model; conditions: human
MRPs = test: Permeability with pan-MRP inhibitor MK571 in iPSC-derived BMEC; assay type: in vitro ADME, human; conditions: 10 μM MK571, 60 min pre-incubation; normalized to no inhibitor
[4] = Experimental octanol/water LogD; assay type: physicochemical; conditions: pH 7.4, octanol:buffer
iPSC-derived BMECs [5] = test: Permeability across iPSC-derived BMEC Transwell in vitro BBB model; conditions: for permeability (Pe) across iPSC-BMEC: Transwell, APC analogs 1 μM in PM20, 2 hours, mean±S.E., n≥3

Chain of P-gp (P08183 whole entry): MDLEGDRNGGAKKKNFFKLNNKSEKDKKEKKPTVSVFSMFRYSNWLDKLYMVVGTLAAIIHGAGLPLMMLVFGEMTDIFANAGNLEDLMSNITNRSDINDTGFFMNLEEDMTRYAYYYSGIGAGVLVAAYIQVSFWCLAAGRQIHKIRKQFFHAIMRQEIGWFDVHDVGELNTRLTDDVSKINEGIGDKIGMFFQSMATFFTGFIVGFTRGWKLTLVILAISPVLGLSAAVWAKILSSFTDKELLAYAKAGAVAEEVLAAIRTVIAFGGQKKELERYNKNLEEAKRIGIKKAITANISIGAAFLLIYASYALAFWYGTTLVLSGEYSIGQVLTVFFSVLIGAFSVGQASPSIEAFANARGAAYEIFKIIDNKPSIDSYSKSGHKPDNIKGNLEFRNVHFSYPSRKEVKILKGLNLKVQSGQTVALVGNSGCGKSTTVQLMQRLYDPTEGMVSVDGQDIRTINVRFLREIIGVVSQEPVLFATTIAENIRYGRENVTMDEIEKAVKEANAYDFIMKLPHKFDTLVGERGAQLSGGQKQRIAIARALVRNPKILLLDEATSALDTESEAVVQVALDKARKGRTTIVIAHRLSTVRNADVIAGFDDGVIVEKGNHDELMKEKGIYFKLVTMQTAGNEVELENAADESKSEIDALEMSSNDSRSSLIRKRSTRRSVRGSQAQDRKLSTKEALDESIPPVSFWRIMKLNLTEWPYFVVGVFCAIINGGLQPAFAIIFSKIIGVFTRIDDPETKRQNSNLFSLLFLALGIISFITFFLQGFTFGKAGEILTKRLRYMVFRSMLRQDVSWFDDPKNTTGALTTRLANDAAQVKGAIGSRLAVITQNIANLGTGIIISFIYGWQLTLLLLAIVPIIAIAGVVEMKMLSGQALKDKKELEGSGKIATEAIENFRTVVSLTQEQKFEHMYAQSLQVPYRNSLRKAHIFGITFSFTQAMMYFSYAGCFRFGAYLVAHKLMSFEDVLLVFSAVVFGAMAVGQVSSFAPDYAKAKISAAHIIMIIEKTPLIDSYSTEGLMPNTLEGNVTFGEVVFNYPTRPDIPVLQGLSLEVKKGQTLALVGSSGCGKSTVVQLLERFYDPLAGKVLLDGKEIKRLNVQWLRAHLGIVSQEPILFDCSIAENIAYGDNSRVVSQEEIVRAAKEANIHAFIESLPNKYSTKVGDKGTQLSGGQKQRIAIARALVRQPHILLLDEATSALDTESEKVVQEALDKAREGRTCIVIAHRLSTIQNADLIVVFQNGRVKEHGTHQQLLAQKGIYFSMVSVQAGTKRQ

| Structure (SMILES) | polarized flux, basolateral-apical (BA) vs apical-basolateral (AB) (iPSC-derived BMECs [1]) | permeability change with Ko143 (BCRP inhibition) (BCRP) | in vitro BBB permeability at 4°C compared to 37°C (iPSC-derived BMECs [2]) | permeability change with PSC833 (P-gp inhibition) (P-gp) | Papp at 2 h, 1 μM [3] [×10⁻⁶ cm/s] | permeability change with MK571 (MRP inhibition) (MRPs) | fold increase of experimental LogD compared to parent CLR1404 [4] | permeability (Pe) across iPSC-BMEC (iPSC-derived BMECs [5]) | fold reduced permeability compared with CLR1501 (iPSC-derived BMECs [5]; iPSC-derived BMEC Transwell, p<0.05) [fold] |
| --- | --- | --- | --- | --- | --- | --- | --- | --- | --- |
| C[N+](C)(C)CCOP(=O)([O-])OCCCCCCCCCCCCCCCCCCc1ccc(I)cc1 [CLR1404, 18-(p-iodophenyl) octadecylphosphocholine] | no significant evidence of polarized efflux | did not affect | slight, but statistically insignificant, increase | did not affect | 5.83 | did not affect | – | – | – |
| C[N+](C)(C)CCOP(=O)([O-])OCCCCCCCCCCCCCCCCCCc1ccc(C2=C3C=CC=[N+]3[B-](F)(F)n3cccc32)cc1 [CLR1501] | significantly polarized flux in the brain-to-blood (BA) direction | selectively increased | significantly higher | – | – | selectively increased | greater than 2 fold | 54±3.2 ×10^−5 cm/min | – |
| CN1/C(=C/C=C2\CCCC(/C=C/C3=[N+](C)c4ccccc4C3(C)C)=C2c2ccc(CCCCCCCCCCCCCCCCCCOP(=O)([O-])OCC[N+](C)(C)C)cc2)C(C)(C)c2ccccc21.[Cl-] [CLR1502] | significantly polarized flux in the brain-to-blood (BA) direction | A similar pattern was observed | significantly higher | – | – | A similar pattern was observed | greater than 2 fold | 26±4.9 ×10^−5 cm/min | 2 |
